Reference: PMC7292393 (PLoS ONE, 2020)
Several values for one entry are separate records, joined by “and”; a condition that tells them apart may be missing. Identical values can stand only once.

Legend:
[1] = target: T1, human SUMO1 (Homo sapiens, UniProt P63165); assay: Surface plasmon resonance (SPR) primary screen; assay type: binding; conditions: for SPR Screens 1° / %RUmax: 500 μM flavonoid in DMSO; for SPR Screens 1°: cut-off of %RUmax of ~15; for interaction in SPR primary screen: 500 μM, %RUmax above threshold of ~15%; for %RUmax: SPR primary screen, (Mean RU/RUmax)*100;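 as to all read-outs here: recombinant human SUMO1 amine-coupled to a sensor chip, blank activated and quenched reference flow cell, flavonoids injected 2 min then 1 min dissociation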
T1 construct: encoding amino acids 1–97 of mature human SUMO1; host or cells: E. coli BL21 Rosetta (DE3)

[2] = target: T1, human SUMO1; assay: SPR secondary screen / dose-dependent binding; design: key to SPR Screens 2°: ✓: dose-dependent saturation kinetics; ×: no indication of saturation kinetics; conditions: for saturation binding in SPR secondary screen: Fig 2A-H; for SPR Screens 2°: five concentrations 31.25-500 μM; for Kd: one-site hyperbola fit, 31.25-500 μM flavonoid, Fig 2A-C, read-out: Kd (SPR secondary screen)
[3] = target: T1, human SUMO1; assay: Differential scanning fluorimetry (DSF) thermal shift; assay type: binding; design: key to DSF Tm SUMO1 + Flavonoid (class): UF: unfolded protein; ND: melting curve could not be determined; conditions: 2 μM SUMO1, 300 μM flavonoid; for DSF Tm SUMO1 + Flavonoid: mean and SEM, n = 5, SUMO1 + DMSO 59.63 ± 0.03
[4] = Precipitation in NMR samples; assay type: physicochemical; conditions: at 400 μM, dissolved in DMSO-d6, NMR sample
Experimental: All NMR experiments for 2D ^1H-^15N HSQC spectra were performed at 17°C on a Varian VNMR 500 MHz spectrometer equipped with a 5mm cryogenic triple resonance probe. Complex points 1024 × 128 and spectral widths of 14 × 38 ppm were used to record all the spectra. […] DMSO-d6 used as a cosolvent caused a slight shift (< ~0.8ppm) of resonance peaks. Therefore resonance assignments for ^15N-labeled SUMO1 residues were compared to the DMSO control treatment and normalized by a common factor. […] The resonance peak assignments were performed using data deposited in the Biological Resonance Data Bank (BMRB) under 25576 as reference. Chemical shift changes were characterized by calculating a weighted chemical shift difference as previously described. […] The chemical shift perturbation data from this work are deposited under BMRB ID 50128.

[5] = target: T1, human SUMO1; assay: Native-PAGE mobility shift; assay type: binding; conditions: SUMO1 ~40 μM, 300 μM flavonoid
Experimental: Recombinantly purified proteins (Saccharomyces cerevisiae SMT3, Saccharomyces cerevisiae Ulp1, and human SUMO1) were incubated with flavonoids (or DMSO vehicle control) for 30 min to 1 hr at 4°C. Samples were loaded onto 4–20% or 7.5% Mini-PROTEAN TGX Precast Protein Gels (Bio-Rad, Hercules, CA) and were run […] at 95 V for 4 hr 30 min at 4°C using a standard SDS-free loading buffer (pH 8.0) and Tris-glycine running buffer (pH 8.3). Immediately after electrophoresis, the gel was imaged to track migration of bright yellow flavonoid. Following this step, the gel was stained with Bio-Safe Coomassie (Bio-Rad, Hercules, CA) to detect the proteins.

T1 sequence (P63165 1-97): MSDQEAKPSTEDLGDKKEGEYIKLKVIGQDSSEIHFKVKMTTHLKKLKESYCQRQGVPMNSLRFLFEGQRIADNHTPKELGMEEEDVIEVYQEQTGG

SMILES	%RUmax [1] [%]	saturation binding in SPR secondary screen [2]	SPR Screens 2° [2]	DSF Tm SUMO1 + Flavonoid [3] [°C]	electrophoretic mobility shift of human SUMO1 [5]	SPR Screens 1° [1]	interaction in SPR primary screen [1]	effect on DSF thermogram / thermal stability of SUMO1 [3]	Kd [2]	DSF Tm SUMO1 + Flavonoid (class) [3]	precipitation in NMR sample [4]
O=C1C[C@@H](c2ccc(O)cc2)Oc2cc(O)cc(O)c21 [Naringenin]	27.5	failed to exhibit saturation binding	×	59.24 ± 0.13	–	✓ (%RUmax with binding activity above cut-off)	interacted with SUMO1 in the primary screen	–	–	–	–
C[C@@H]1O[C@@H](Oc2c(-c3ccc(O)c(O)c3)oc3cc(O)cc(O)c3c2=O)[C@H](O)[C@H](O)[C@H]1O [Quercitrin]	14.2	–	–	54.28 ± 0.19	–	× (low or no binding activity)	–	significant thermal destabilization or unfolding	–	–	–
O=c1c(O)c(-c2ccc(O)c(O)c2)oc2cc(O)cc(O)c12 [Quercetin, 3,3',4',5,7-pentahydroxyflavone]	14.5	exhibited binding that approached saturation	✓	–	–	✓ (%RUmax with binding activity above cut-off)	interacted with SUMO1 in the primary screen	cause unfolding of human SUMO1	41.7 µM and ~42 µM	UF	Precipitation
O=C(/C=C/c1ccc(O)cc1)c1ccc(O)cc1O [Isoliquiritigenin]	–	–	✓	–	–	–	interacted with SUMO1 in the primary screen	–	~196 µM	–	–
O=c1c(O)c(-c2ccc(O)cc2)oc2cc(O)cc(O)c12 [Kaempferol, 3,4′,5,7-tetrahydroxyflavone]	12.6	–	–	60.28 ± 0.09	–	× (low or no binding activity)	–	little or no effect	–	–	Precipitation
O=c1cc(-c2ccc(O)c(O)c2)oc2cc(O)cc(O)c12 [Luteolin]	-47.8	–	–	51.89 ± 0.68	unable to detect a similar gel shift	× (low or no binding activity)	–	significant thermal destabilization or unfolding	–	–	–
O=c1c(-c2ccc(O)c(O)c2)coc2cc(O)ccc12 [3’,4’,7-Trihydroxy-isoflavone, 3’,4’,7-Trihydroxyisoflavone]	48.0	failed to exhibit saturation binding	×	33.28 ± 0.15	–	✓ (%RUmax with binding activity above cut-off)	interacted with SUMO1 in the primary screen	significant thermal destabilization or unfolding	–	–	–
O=C(/C=C/c1ccc(O)c(O)c1)c1ccc(O)cc1O [Butein]	74.2	failed to exhibit saturation binding	×	–	–	✓ (%RUmax with binding activity above cut-off)	interacted with SUMO1 in the primary screen	–	–	–	–
COc1cc(O)c(Cc2ccccc2O)c(O)c1C(=O)/C=C/c1ccccc1 [C-benzylated chalcone]	-5.3	–	–	–	–	× (low or no binding activity)	–	–	–	–	–

Continued, in another order:

%RUmax [1] [%]	saturation binding in SPR secondary screen [2]	SPR Screens 2° [2]	DSF Tm SUMO1 + Flavonoid [3] [°C]	electrophoretic mobility shift of human SUMO1 [5]	SMILES	SPR Screens 1° [1]	interaction in SPR primary screen [1]	effect on DSF thermogram / thermal stability of SUMO1 [3]	Kd [2]	DSF Tm SUMO1 + Flavonoid (class) [3]	precipitation in NMR sample [4]
143.4	failed to exhibit saturation binding	×	–	–	Cc1c(O)cc2oc(-c3ccc(O)c(O)c3)c(O)c(=O)c2c1O [Pinoquercetin]	✓ (%RUmax with binding activity above cut-off)	interacted with SUMO1 in the primary screen	–	–	–	–
8.5	–	–	59.94 ± 0.07	–	C[C@@H]1O[C@@H](O[C@H]2[C@H](Oc3cc(O)c(C(=O)CCc4ccc(O)cc4)c(O)c3)O[C@H](CO)[C@@H](O)[C@@H]2O)[C@H](O)[C@H](O)[C@H]1O [Naringin dihydrochalcone]	× (low or no binding activity)	–	–	–	–	–
5.4	–	–	58.93 ± 0.02	–	C[C@@H]1O[C@@H](O[C@H]2[C@H](Oc3cc(O)c4c(c3)O[C@H](c3ccc(O)cc3)CC4=O)O[C@H](CO)[C@@H](O)[C@@H]2O)[C@H](O)[C@H](O)[C@H]1O [Naringin]	× (low or no binding activity)	–	–	–	–	–
21.3	failed to exhibit saturation binding	×	56.95 ± 0.28	–	O=c1c(O[C@@H]2O[C@H](CO)[C@@H](O)[C@H](O)[C@H]2O)c(-c2ccc(O)c(O)c2)oc2cc(O)cc(O)c12 [Quercetin 3-β-D-glucoside]	✓ (%RUmax with binding activity above cut-off)	interacted with SUMO1 in the primary screen	–	–	–	–
